{"source": "the supplement of paper PMC10307832", "data": [{"compound": "CC(C)(C)c1cc(NC(=O)Nc2ccc(-c3cn4c(n3)sc3cc(OCCN5CCOCC5)ccc34)cc2)no1 [Quizartinib] + CS(=O)(=O)CCNCc1ccc(-c2ccc3ncnc(Nc4ccc(OCc5cccc(F)c5)c(Cl)c4)c3c2)o1 [Lapatinib] (partner 2 µM)", "assay": "relative viability (nuclei count vs DMSO), 5 days (fraction); higher = more cells survive", "settings": "first compound 0.1 µM", "outline": "(§1)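 Medians of duplicate plates are given as relative viability. That measure is the nuclei count in treated wells divided by the count in vehicle wells. Counts were taken on 4× images of lung cancer cell lines in 1536-well plates, 5 days after pin-tool dosing the day after seeding with one drug alone or a fixed anchor-drug dose plus five library-drug doses (not always all listed) in √10 steps.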", "values": [{"cell line": "IA-LM", "relative viability": 0.719}, {"cell line": "NCI-H2170", "relative viability": 0.272}, {"cell line": "A549", "relative viability": 0.99}, {"cell line": "NCI-H1793", "relative viability": 0.795}, {"cell line": "NCI-H1650", "relative viability": 0.686}]}, {"compound": "CC(C)(C)c1cc(NC(=O)Nc2ccc(-c3cn4c(n3)sc3cc(OCCN5CCOCC5)ccc34)cc2)no1 [Quizartinib] + C[C@@H](Oc1cc(-c2cnn(C3CCNCC3)c2)cnc1N)c1c(Cl)ccc(F)c1Cl [Crizotinib] (partner 1 µM)", "assay": "relative viability (nuclei count vs DMSO), 5 days (fraction); higher = more cells survive", "settings": "first compound 0.001 µM", "outline": "as §1", "values": [{"cell line": "EKVX", "relative viability": 0.867}, {"cell line": "EPLC-272H", "relative viability": 0.826}, {"cell line": "NCI-H520", "relative viability": 0.726}, {"cell line": "NCI-H1563", "relative viability": 0.825}, {"cell line": "NCI-H650", "relative viability": 0.684}, {"cell line": "RERF-LC-KJ", "relative viability": 0.8}, {"cell line": "HCC-827", "relative viability": 0.934}, {"cell line": "NCI-H2087", "relative viability": 0.717}, {"cell line": "SK-MES-1", "relative viability": 0.943}, {"cell line": "NCI-H1299", "relative viability": 0.92}, {"cell line": "NCI-H1651", "relative viability": 0.757}, {"cell line": "UMC-11", "relative viability": 0.543}, {"cell line": "NCI-H1355", "relative viability": 1.03}, {"cell line": "H3255", "relative viability": 0.736}, {"cell line": "NCI-H1792", "relative viability": 0.743}, {"cell line": "NCI-H647", "relative viability": 0.9}, {"cell line": "Calu-6", "relative viability": 0.719}, {"cell line": "NCI-H1703", "relative viability": 0.791}, {"cell line": "LXF-289", "relative viability": 0.743}, {"cell line": "LU99A", "relative viability": 0.49}, {"cell line": "NCI-H2023", "relative viability": 0.648}, {"cell line": "NCI-H2228", "relative viability": 0.439}, {"cell line": "NCI-H1437", "relative viability": 0.822}, {"cell line": "NCI-H2009", "relative viability": 0.984}, {"cell line": "HCC-366", "relative viability": 0.405}, {"cell line": "EBC-1", "relative viability": 0.197}, {"cell line": "LCLC-103H", "relative viability": 0.784}, {"cell line": "IA-LM", "relative viability": 0.858}, {"cell line": "NCI-H2170", "relative viability": 1.15}, {"cell line": "A549", "relative viability": 0.703}, {"cell line": "NCI-H441", "relative viability": 0.527}, {"cell line": "NCI-H1650", "relative viability": 0.891}, {"cell line": "ChaGo-K-1", "relative viability": 1.1}]}, {"compound": "CC(C)(C)c1cc(NC(=O)Nc2ccc(-c3cn4c(n3)sc3cc(OCCN5CCOCC5)ccc34)cc2)no1 [Quizartinib] + C[C@@H](Oc1cc(-c2cnn(C3CCNCC3)c2)cnc1N)c1c(Cl)ccc(F)c1Cl [Crizotinib] (partner 1 µM)", "assay": "relative viability (nuclei count vs DMSO), 5 days (fraction); higher = more cells survive", "settings": "first compound 0.003162 µM", "outline": "as §1", "values": [{"cell line": "EKVX", "relative viability": 0.683}, {"cell line": "EPLC-272H", "relative viability": 0.828}, {"cell line": "NCI-H520", "relative viability": 0.686}, {"cell line": "NCI-H1563", "relative viability": 0.851}, {"cell line": "NCI-H650", "relative viability": 0.525}, {"cell line": "RERF-LC-KJ", "relative viability": 0.596}, {"cell line": "HCC-827", "relative viability": 0.877}, {"cell line": "NCI-H2087", "relative viability": 0.685}, {"cell line": "SK-MES-1", "relative viability": 0.949}, {"cell line": "NCI-H1299", "relative viability": 0.949}, {"cell line": "NCI-H1651", "relative viability": 0.9}, {"cell line": "UMC-11", "relative viability": 0.562}, {"cell line": "NCI-H1355", "relative viability": 1.01}, {"cell line": "H3255", "relative viability": 0.86}, {"cell line": "NCI-H1792", "relative viability": 0.978}, {"cell line": "NCI-H647", "relative viability": 0.948}, {"cell line": "Calu-6", "relative viability": 0.714}, {"cell line": "LCLC-97TM1", "relative viability": 0.27}, {"cell line": "NCI-H1703", "relative viability": 0.718}, {"cell line": "LXF-289", "relative viability": 0.787}, {"cell line": "LU99A", "relative viability": 0.507}, {"cell line": "NCI-H2023", "relative viability": 0.57}, {"cell line": "NCI-H2228", "relative viability": 0.414}, {"cell line": "NCI-H1437", "relative viability": 0.849}, {"cell line": "NCI-H2009", "relative viability": 1.02}, {"cell line": "HCC-366", "relative viability": 0.411}, {"cell line": "EBC-1", "relative viability": 0.173}, {"cell line": "LCLC-103H", "relative viability": 1.16}, {"cell line": "IA-LM", "relative viability": 0.912}, {"cell line": "NCI-H2170", "relative viability": 1.11}, {"cell line": "A549", "relative viability": 0.691}, {"cell line": "NCI-H441", "relative viability": 0.624}, {"cell line": "NCI-H1650", "relative viability": 0.957}, {"cell line": "ChaGo-K-1", "relative viability": 1.06}]}, {"compound": "CC(C)(C)c1cc(NC(=O)Nc2ccc(-c3cn4c(n3)sc3cc(OCCN5CCOCC5)ccc34)cc2)no1 [Quizartinib] + C[C@@H](Oc1cc(-c2cnn(C3CCNCC3)c2)cnc1N)c1c(Cl)ccc(F)c1Cl [Crizotinib] (partner 1 µM)", "assay": "relative viability (nuclei count vs DMSO), 5 days (fraction); higher = more cells survive", "settings": "first compound 0.01 µM", "outline": "as §1", "values": [{"cell line": "EKVX", "relative viability": 0.779}, {"cell line": "EPLC-272H", "relative viability": 0.739}, {"cell line": "NCI-H520", "relative viability": 0.739}, {"cell line": "NCI-H1563", "relative viability": 0.982}, {"cell line": "NCI-H650", "relative viability": 0.772}, {"cell line": "RERF-LC-KJ", "relative viability": 1}, {"cell line": "HCC-827", "relative viability": 0.961}, {"cell line": "NCI-H2087", "relative viability": 0.883}, {"cell line": "SK-MES-1", "relative viability": 1.12}, {"cell line": "NCI-H1299", "relative viability": 1.01}, {"cell line": "NCI-H1651", "relative viability": 0.877}, {"cell line": "UMC-11", "relative viability": 0.739}, {"cell line": "NCI-H1355", "relative viability": 1.11}, {"cell line": "H3255", "relative viability": 1}, {"cell line": "NCI-H1792", "relative viability": 1.04}, {"cell line": "NCI-H647", "relative viability": 1.31}, {"cell line": "Calu-6", "relative viability": 0.814}, {"cell line": "LCLC-97TM1", "relative viability": 0.463}, {"cell line": "NCI-H1703", "relative viability": 0.219}, {"cell line": "LXF-289", "relative viability": 0.821}, {"cell line": "LU99A", "relative viability": 0.656}, {"cell line": "NCI-H2023", "relative viability": 0.799}, {"cell line": "NCI-H2228", "relative viability": 0.317}, {"cell line": "NCI-H1437", "relative viability": 0.906}, {"cell line": "NCI-H2009", "relative viability": 0.994}, {"cell line": "HCC-366", "relative viability": 0.689}, {"cell line": "EBC-1", "relative viability": 0.211}, {"cell line": "LCLC-103H", "relative viability": 0.992}, {"cell line": "IA-LM", "relative viability": 0.726}, {"cell line": "NCI-H2170", "relative viability": 1.17}, {"cell line": "A549", "relative viability": 0.879}, {"cell line": "NCI-H441", "relative viability": 0.896}, {"cell line": "NCI-H1650", "relative viability": 1.23}, {"cell line": "ChaGo-K-1", "relative viability": 1.23}]}, {"compound": "CC(C)(C)c1cc(NC(=O)Nc2ccc(-c3cn4c(n3)sc3cc(OCCN5CCOCC5)ccc34)cc2)no1 [Quizartinib] + C[C@@H](Oc1cc(-c2cnn(C3CCNCC3)c2)cnc1N)c1c(Cl)ccc(F)c1Cl [Crizotinib] (partner 1 µM)", "assay": "relative viability (nuclei count vs DMSO), 5 days (fraction); higher = more cells survive", "settings": "first compound 0.03162 µM", "outline": "as §1", "values": [{"cell line": "EKVX", "relative viability": 0.994}, {"cell line": "EPLC-272H", "relative viability": 0.845}, {"cell line": "NCI-H520", "relative viability": 0.726}, {"cell line": "NCI-H650", "relative viability": 0.628}, {"cell line": "RERF-LC-KJ", "relative viability": 0.795}, {"cell line": "HCC-827", "relative viability": 0.934}, {"cell line": "NCI-H2087", "relative viability": 0.767}, {"cell line": "SK-MES-1", "relative viability": 0.976}, {"cell line": "NCI-H1299", "relative viability": 0.928}, {"cell line": "NCI-H1651", "relative viability": 0.86}, {"cell line": "UMC-11", "relative viability": 0.66}, {"cell line": "NCI-H1355", "relative viability": 0.99}, {"cell line": "H3255", "relative viability": 0.834}, {"cell line": "NCI-H1792", "relative viability": 0.958}, {"cell line": "NCI-H647", "relative viability": 1.06}, {"cell line": "Calu-6", "relative viability": 0.621}, {"cell line": "LCLC-97TM1", "relative viability": 0.297}, {"cell line": "NCI-H1703", "relative viability": 0.136}, {"cell line": "LXF-289", "relative viability": 0.8}, {"cell line": "LU99A", "relative viability": 0.534}, {"cell line": "NCI-H2023", "relative viability": 0.246}, {"cell line": "NCI-H2228", "relative viability": 0.418}, {"cell line": "NCI-H1437", "relative viability": 0.687}, {"cell line": "NCI-H2009", "relative viability": 0.603}, {"cell line": "HCC-366", "relative viability": 0.517}, {"cell line": "EBC-1", "relative viability": 0.207}, {"cell line": "LCLC-103H", "relative viability": 1.05}, {"cell line": "NCI-H2170", "relative viability": 1.2}, {"cell line": "A549", "relative viability": 0.457}, {"cell line": "NCI-H441", "relative viability": 0.673}]}, {"compound": "CC(C)(C)c1cc(NC(=O)Nc2ccc(-c3cn4c(n3)sc3cc(OCCN5CCOCC5)ccc34)cc2)no1 [Quizartinib] + C[C@@H](Oc1cc(-c2cnn(C3CCNCC3)c2)cnc1N)c1c(Cl)ccc(F)c1Cl [Crizotinib] (partner 1 µM)", "assay": "relative viability (nuclei count vs DMSO), 5 days (fraction); higher = more cells survive", "settings": "first compound 0.1 µM", "outline": "as §1", "values": [{"cell line": "EKVX", "relative viability": 1.09}, {"cell line": "EPLC-272H", "relative viability": 1.01}, {"cell line": "NCI-H520", "relative viability": 0.666}, {"cell line": "NCI-H1563", "relative viability": 0.78}, {"cell line": "NCI-H650", "relative viability": 0.749}, {"cell line": "RERF-LC-KJ", "relative viability": 0.798}, {"cell line": "HCC-827", "relative viability": 0.879}, {"cell line": "NCI-H2087", "relative viability": 0.863}, {"cell line": "SK-MES-1", "relative viability": 0.937}, {"cell line": "NCI-H1299", "relative viability": 0.956}, {"cell line": "NCI-H1651", "relative viability": 0.896}, {"cell line": "UMC-11", "relative viability": 0.577}, {"cell line": "NCI-H1355", "relative viability": 1.15}, {"cell line": "H3255", "relative viability": 0.868}, {"cell line": "NCI-H1792", "relative viability": 0.995}, {"cell line": "NCI-H647", "relative viability": 0.847}, {"cell line": "Calu-6", "relative viability": 0.752}, {"cell line": "LCLC-97TM1", "relative viability": 0.417}, {"cell line": "NCI-H1703", "relative viability": 0.335}, {"cell line": "LXF-289", "relative viability": 0.726}]}]}
